Assay results taken from patent US20150342908A1, “SECOAPORPHINE ALKALOID DERIVATIVE FOR ACTIVATING AMP-DEPENDENT PROTEIN KINASE” (ZIH YUAN TANG Biotechnology Co., Ltd, priority 2014, published 2015).

System: AMPK
Experiment: AMPK phosphorylation (Thr172) western blot in C2C12 myocytes
Format: cell-based, mouse
Protocol: C2C12 skeletal myoblast cell line was purchased from the Food Industry Research and Development Institute (Hsinchu, Taiwan). The C2C12 cell line was a cell line obtained from culturing the leg skeletal muscle of adult C3H mice in a cell incubator under […], 5% CO2, and 37° C. The cells were cultured in a DMEM medium (Gibco/Invitrogen, Carlsbad, Calif.) containing 4.5 mg/mL glucose, 10% fetal bovine serum (FBS; Gibco/Invitrogen, Carlsbad, Calif.), and an antibiotic solution (with final concentrations of penicillin=100 IU/mL and streptomycin=100 μg/mL). When the C2C12 myoblast cells have proliferated to cover seven-tenths of the area in the petri dish, the fetal bovine serum was replaced by 2% horse serum (Gibco/Invitrogen, Carlsbad, Calif.) so as to induce the C2C12 myoblast cells to become the multi-nuclei myocytes. The C2C12 myoblast cells differentiated into myocytes in 4 days, and the culture medium of the cells was replaced with no-serum DMEM 24 hours before the experiments so as to reduce metabolism of the cells. The C2C12 myocytes were treated respectively with 1 μM, 3 μM and 10 μM N-allylsecoboldine for 5 and 15 minutes. Then the C2C12 myocytes were rinsed with PBS buffer solution, and RIPA buffer solution containing protease inhibitors (20 mM Tris-HCl (pH 7.4), 100 mM NaCl, 1 mM EDTA, 1 mM EGTA, 0.1% SDS, 0.5% sodium deoxycholate, 1% NP-40, and 100× protease inhibitor cocktail) was added into the cells. The cells were collected and centrifuged on ice. Then, the concentrations of the supernatant samples were adjusted to be the same. The supernatant samples were put through vertical electrophoresis isolation with 8% SDS-PAGE, and the isolated proteins were transferred onto a PVDF blotting membrane. After blotting was completed, the PVDF blotting membrane was removed and blocked for 1 hour under room temperature with a blocking buffer of TBST (Tris-buffered saline with Tween-20) with 5% non-fat milk. Then, the PVDF blotting membrane was placed into a 5% BSA and TBST solution containing the primary monoclonal antibodies Phospho-AMPKα (Thr172) (Cell Signaling) (1:1000) and AMPKα (Thr172) (Cell Signaling) (1:1000), respectively, and the primary immunoblotting reaction was performed under 4° C. Then, the PVDF blotting membrane was rinsed 3 times with TBST, and a TBST solution containing the secondary antibody goat anti-rabbit IgG (Perkin Elmer) (1:10000) was added to perform the secondary reaction for one hour under room temperature. Finally, the membrane was rinsed 3 times with TBST before ECL (enhanced chemiluminescence) was added to present color.

C=CCN(C)CCc1cc(O)c(OC)c2c1ccc1cc(O)c(OC)cc12 [N-allylsecoboldine]
AMPK phosphorylation, times of that in the control cells (3 μM, 5 minutes): 2.34 times
AMPK phosphorylation, times of that in the control cells (3 μM, 15 minutes): 1.38 times
AMPK phosphorylation, times of that in the control cells (10 μM, 5 minutes): 2.51 times
AMPK phosphorylation, times of that in the control cells (10 μM, 15 minutes): 2.79 times
effect in AMPK activation (in words) (C2C12 cells, overall conclusion): excellent effect in AMPK activation
